Values of other authors, collected in patent US12673027B2, “Method for the production of commercial nanoparticle and microparticle powders” (ICEUTICA PTY LTD., priority 2009, dated 2026).

Details: absorption by the body

Cc1cnc(NC(=O)C2=C(O)c3ccccc3S(=O)(=O)N2C)s1 [Meloxicam]
Tmax: 4 to 5 h
